Experimental findings from ChEMBL document CHEMBL5584244, “Discovery of novel pyrrolo[2,1-c][1,4]benzodiazepine-3,11-dione (PBD) derivatives as selective HDAC6 inhibitors for the efficient treatment of idiopathic pulmonary fibrosis (IPF) in vitro and in vivo” (Eur J Med Chem, 2024) are described below.

In data set [1] the test system is Mus musculus. In words: Anti-pulmonary fibrosis activity in bleomycin-induced C57BL/6 mouse model of pulmonary fibrosis assessed as decrease in collagen fiber deposition in lung at 50 to 100 mg/kg, ip for 3 weeks by Masson trichrome staining based microscopic analysis. The following applies: dose 50-100 mg/kg. It counts as functional, organism-based.
Data set [2] concerns Mus musculus. The experiment in a line: Anti-pulmonary fibrosis activity in bleomycin-induced ip dosed C57BL/6 mouse model of pulmonary fibrosis assessed as inhibition of Smad2 protein phosphorylation level in lung for 3 weeks by immunohistochemical analysis. As to conditions: dose 50-100 mg/kg. It is filed as functional, organism-based.
For the next data set, the target named is Histone deacetylase 2 (Homo sapiens, UniProt Q92769). The experiment in a line: Inhibition of recombinant human full length HDAC2 using Boc-Lys (Ac)-AMC as substrate incubated for 120 mins by fluorescence analysis.
Chain of Histone deacetylase 2 (Q92769 whole entry): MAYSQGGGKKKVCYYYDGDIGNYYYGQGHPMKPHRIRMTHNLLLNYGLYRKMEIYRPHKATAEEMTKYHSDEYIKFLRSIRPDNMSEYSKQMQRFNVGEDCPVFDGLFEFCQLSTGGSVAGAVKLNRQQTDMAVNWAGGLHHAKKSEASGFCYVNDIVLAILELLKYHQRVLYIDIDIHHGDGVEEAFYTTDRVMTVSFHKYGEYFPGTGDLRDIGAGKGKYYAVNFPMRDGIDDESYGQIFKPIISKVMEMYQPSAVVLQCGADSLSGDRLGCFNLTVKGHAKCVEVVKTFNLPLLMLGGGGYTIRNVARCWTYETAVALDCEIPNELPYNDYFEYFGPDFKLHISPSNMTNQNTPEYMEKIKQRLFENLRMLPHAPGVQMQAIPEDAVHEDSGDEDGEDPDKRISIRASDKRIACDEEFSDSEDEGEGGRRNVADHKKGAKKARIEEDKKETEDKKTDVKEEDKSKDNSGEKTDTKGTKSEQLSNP
The next data set has as its system HELF. The experiment in a line: Anti-pulmonary fibrosis activity against TGF-beta1-induced HELF cells assessed as reduction in alpha-SMA protein expression incubated for 48 hrs by Western blot analysis. It is filed as functional, cell-based. The following applies: Homo sapiens, dose 2.5-10 µM. For orientation: Immunoblotting shows a protein as a band on a membrane.

Data set [3] deals with Mus musculus. In words: Anti-pulmonary fibrosis activity in bleomycin-induced C57BL/6 mouse model of pulmonary fibrosis assessed as decrease in inflammatory cell infiltration in lung at 50 to 100 mg/kg, ip for 3 weeks by H and E staining based fluorescence microscopic analysis. It is filed as functional, organism-based. The following applies: dose 50-100 mg/kg.
A further data set deals with T1, Histone deacetylase 7 (Homo sapiens, UniProt Q8WUI4).
T1 sequence (Q8WUI4 whole entry): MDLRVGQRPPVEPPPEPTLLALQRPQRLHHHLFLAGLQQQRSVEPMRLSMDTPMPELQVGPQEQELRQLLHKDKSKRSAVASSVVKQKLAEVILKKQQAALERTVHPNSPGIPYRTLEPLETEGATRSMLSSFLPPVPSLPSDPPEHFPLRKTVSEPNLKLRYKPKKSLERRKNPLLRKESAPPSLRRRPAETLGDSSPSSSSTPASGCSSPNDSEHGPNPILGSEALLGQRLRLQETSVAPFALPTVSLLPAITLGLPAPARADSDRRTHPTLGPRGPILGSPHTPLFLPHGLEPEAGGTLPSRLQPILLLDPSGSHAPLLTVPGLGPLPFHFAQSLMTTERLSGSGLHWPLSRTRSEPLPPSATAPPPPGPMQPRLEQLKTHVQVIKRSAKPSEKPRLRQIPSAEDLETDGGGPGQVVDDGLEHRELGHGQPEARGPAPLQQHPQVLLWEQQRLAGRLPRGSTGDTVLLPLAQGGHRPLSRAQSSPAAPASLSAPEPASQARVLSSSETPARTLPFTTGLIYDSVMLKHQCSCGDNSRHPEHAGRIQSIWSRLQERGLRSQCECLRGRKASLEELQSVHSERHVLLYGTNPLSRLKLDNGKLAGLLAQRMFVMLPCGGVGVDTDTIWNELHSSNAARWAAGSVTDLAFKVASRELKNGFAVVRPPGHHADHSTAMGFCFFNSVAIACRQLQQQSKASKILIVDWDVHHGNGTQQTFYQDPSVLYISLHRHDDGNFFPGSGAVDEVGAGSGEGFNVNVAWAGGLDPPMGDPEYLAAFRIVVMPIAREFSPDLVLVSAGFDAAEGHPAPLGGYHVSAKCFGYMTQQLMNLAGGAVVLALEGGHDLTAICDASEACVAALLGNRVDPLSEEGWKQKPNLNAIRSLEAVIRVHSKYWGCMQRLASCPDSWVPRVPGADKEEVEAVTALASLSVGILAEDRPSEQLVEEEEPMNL
In words: Inhibition of N-terminal GST-tagged recombinant human HDAC7 (518 to end residues) expressed in baculovirus expression system using Boc-Lys (Tfa)-AMC as substrate incubated for 120 mins by fluorescence analysis.

A short description of data set [4]: Stability of compound in human liver microsomes assessed as remaining parent compound at 100 uM incubated after 60 mins in presence of NADPH by LC-MS/MS analysis. As to conditions: read-out: Stability. It is filed as ADME, Microsome. A general note: Microsomes from liver hold many membrane-bound enzymes, among them those of drug oxidation.
Data set [5] deals with Mus musculus. In words: Anti-pulmonary fibrosis activity in bleomycin-induced C57BL/6 mouse model of pulmonary fibrosis assessed as decrease structural damage in lung at 50 to 100 mg/kg, ip for 3 weeks by H and E staining based fluorescence microscopic analysis. It is filed as functional, organism-based. As to conditions: dose 50-100 mg/kg.
The target of the next data set is T2, Histone deacetylase 11 (Homo sapiens, UniProt Q96DB2).
T2 sequence (Q96DB2 whole entry): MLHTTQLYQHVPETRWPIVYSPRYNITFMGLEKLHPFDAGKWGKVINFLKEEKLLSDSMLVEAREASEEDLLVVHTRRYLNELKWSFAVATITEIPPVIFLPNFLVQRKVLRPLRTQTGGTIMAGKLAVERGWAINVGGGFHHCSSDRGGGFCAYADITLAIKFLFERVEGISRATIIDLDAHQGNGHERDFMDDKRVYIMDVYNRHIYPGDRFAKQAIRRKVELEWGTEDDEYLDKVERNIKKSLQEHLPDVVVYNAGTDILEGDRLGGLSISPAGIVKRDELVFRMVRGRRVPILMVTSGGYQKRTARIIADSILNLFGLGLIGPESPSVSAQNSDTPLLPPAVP
In words: Inhibition of recombinant human full length HDAC11 using Boc-Lys (Tfa)-AMC as substrate incubated for 120 mins by fluorescence analysis.

The subject of data set [6] is Mus musculus. The experiment in a line: Anti-pulmonary fibrosis activity in bleomycin-induced C57BL/6 mouse model of pulmonary fibrosis assessed as decrease in collapse of the alveolar cavity in lung at 50 to 100 mg/kg, ip for 3 weeks by Masson trichrome staining based microscopic analysis. It is filed as functional, organism-based. The following applies: dose 50-100 mg/kg.

Data set [7] in a line: Half life in human liver microsomes at 100 uM by LC-MS/MS analysis. It is filed as ADME, Microsome.

The structures appear in SMILES notation. Activity calls are given as the source filed them. The calls are words filed in the database; no cut-off is given here.

In the case of `CC(=O)O.O=C(NO)c1ccc(CN2C(=O)[C@@H]3CCCN3Cc3ccccc32)cc1`, the outcome in the data set with Mus musculus [1], in the data set with Mus musculus [3] and in the data set on Mus musculus [5] was Active. Also, in the data set with Mus musculus [2], the inhibition entry is “Dose-Dependent Effect”. The IC50 (as a rule, the concentration needed to halve the response being measured) is 3.14 µM at Histone deacetylase 2, 0.00894 µM on Histone deacetylase 7 and more than 50 µM at Histone deacetylase 11. In the data set with HELF, the Activity result is “Dose-Dependent Effect”. For the same molecule, the remaining at 1 h, 100 µM in data set [4] worked out at 95.7%. In addition, the outcome in the data set with Mus musculus [6] was inactive. Besides, the half-life (as a rule, how long it takes for the measured level to halve) at 100 µM in [7] was more than 2.42 h.
